Reference: ChEMBL document CHEMBL1136334, “Synthesis and biological evaluation of 4-[(3-methyl-3H-imidazol-4-yl)-(2-phenylethynyl-benzyloxy)-methyl]-benzonitrile as novel farnesyltransferase inhibitor” (Bioorg Med Chem Lett, 2003)

Key:
[1] = target: Geranylgeranyl transferase type I (Homo sapiens, UniProt P49354+P53609); assay: In vitro inhibition of the human Geranylgeranyl transferase-catalyzed incorporation of [3H]GGPP into biotinylated peptide corresponding to the C-terminal of human K-Ras.; type: protein-complex assay
[2] = target: Protein farnesyltransferase (Homo sapiens, UniProt P49354+P49356); assay: In vitro inhibition of the human FTase-catalyzed incorporation of [3H]FPP into recombinant Ras CVIM.; type: protein-complex assay
NIH3T3 = assay: In vitro reduction of farnesylation in NIH-3T3H-ras cell line.; type: functional, cell-based; conditions: Mus musculus
[3] = target: Protein farnesyl/geranylgeranyl transferase (Homo sapiens) (UniProt P49354+P49356+P53609); assay: Selectivity ratio of IC50 Geranylgeranyl transferase to that of IC50 Farnesyltransferase; type: protein-complex assay

SMILES | IC50 [1] [nM] | IC50 [2] [nM] | Selectivity [3] | EC50 (NIH3T3) [nM]
Cn1cncc1C(OCc1ccc(C#N)cc1/C=C/c1ccccn1)c1ccc(C#N)cc1 (centres undefined) | 1800 | 1.6 | 1120 | 23.1
Cn1cncc1C(OCc1ccc(C#N)cc1C#Cc1ccc(-c2ccccc2)cc1)c1ccc(C#N)cc1 (centres undefined) | > 10000 | 10 | > 1000 | > 0.1
Cn1cncc1C(OCc1ccc(C#N)cc1-c1ccccc1)c1ccc(C#N)cc1 (centres undefined) | – | – | – | 140
Cn1cncc1C(OCc1ccc(C#N)cc1-c1ccc(C#N)cc1)c1ccc(C#N)cc1 (centres undefined) | 9000 | 1.3 | 6900 | < 0.1
Cn1cncc1C(OCc1ccc(C#N)cc1/C=C/c1ccc([N+](=O)[O-])cc1)c1ccc(C#N)cc1 (centres undefined) | 110 | 0.61 | 180 | 2.24
CCC/C=C/C=C/c1cc(C#N)ccc1COC(c1ccc(C#N)cc1)c1cncn1C (centres undefined) | 220 | 1.3 | 169 | 16.7
Cn1cncc1C(OCc1ccc(C#N)cc1-c1ccc(-c2ccccc2)cc1)c1ccc(C#N)cc1 (centres undefined) | 150 | 1.1 | 136 | < 0.1

Continued, in another order:

IC50 [1] [nM] | IC50 [2] [nM] | Selectivity [3] | SMILES | EC50 (NIH3T3) [nM]
310 | 0.95 | 326 | Cn1cncc1C(OCc1ccc(C#N)cc1CCC(C)(C)C)c1ccc(C#N)cc1 (centres undefined) | 0.54
124 | 0.63 | 196 | Cn1cncc1C(OCc1ccc(C#N)cc1C#Cc1ccc(C#N)cc1)c1ccc(C#N)cc1 (centres undefined) | 11.6
150 | 0.55 | 273 | Cn1cncc1C(OCc1ccc(C#N)cc1C#Cc1ccc([N+](=O)[O-])cc1)c1ccc(C#N)cc1 (centres undefined) | 36
490 | 0.62 | 790 | Cn1cncc1C(OCc1ccc(C#N)cc1C#CC(C)(C)C)c1ccc(C#N)cc1 (centres undefined) | 76.9
1800 | 0.95 | 1900 | Cn1cncc1C(OCc1ccc(C#N)cc1C#Cc1ccccc1)c1ccc(C#N)cc1 (centres undefined) | 0.1
16000 | 2.9 | 5520 | Cn1cncc1C(OCc1ccc(C#N)cc1C#Cc1ccccn1)c1ccc(C#N)cc1 (centres undefined) | > 0.1
1300 | 1 | 1300 | Cn1cncc1C(OCc1ccc(C#N)cc1C#Cc1cccc(O)c1)c1ccc(C#N)cc1 (centres undefined) | > 0.1
1600 | 1.7 | 941 | Cn1cncc1C(OCc1ccc(C#N)cc1C#CCCCCO)c1ccc(C#N)cc1 (centres undefined) | 20.9
160 | 0.9 | 178 | CCCCCCC#Cc1cc(C#N)ccc1COC(c1ccc(C#N)cc1)c1cncn1C (centres undefined) | > 0.1
540 | 1.4 | 386 | Cn1cncc1C(OCc1ccc(C#N)cc1C#CCCc1ccccc1)c1ccc(C#N)cc1 (centres undefined) | 130
845 | 0.87 | 971 | Cn1cncc1C(OCc1ccc(C#N)cc1C#CC1(O)CCCCC1)c1ccc(C#N)cc1 (centres undefined) | 1.93
